Several values for one entry are separate records, joined by “and”; a condition that tells them apart may be missing. Equal entries are not always repeated. Entries after “also recorded” stand apart in the source; their conditions may differ.
Key:
A549 lung cancer cells = assay: Cell proliferation / cytotoxicity assay (CellTiter-Glo); assay type: cell-based; conditions: compound alone
Protocol: Cell proliferation assays were performed on an Envision 2104 Multilabel Reader (PerkinElmer, USA). Specifically, A549 lung cancer cells (ATCC, USA) were maintained in a humidified CO2 (5%) incubator at 37° C. in DMEM (Thermo Fisher, USA) supplemented with 10% fetal bovine serum in the presence of 1% Penicillin-Streptomycin-Glutamine (Thermo Fisher, USA) and 0.2% Normocin (InvivoGen, USA). The cells were plated in 96-well TC treated plates (PerkinElmer, USA) at a 5000 cells/well density 24 h prior to the experiment. Prodrug 5, compound 2 (2 mM in DMSO) and PEG-Tz (40 mM in DMSO) were serially diluted in pre-warmed culture medium. Prodrug 5 and compound 2 are in a series of final concentrations ranging from 0.001 to 10 μM with 200 μM, 100 μM, 50 μM, 25 μM PEG-Tz before the experiment and added to the wells (100 μL final volume per well). Doxorubicin was used as the positive control with same series of concentrations ranging from 0.001 to 10 μM. […] After 72 h incubation at 37° C., cell proliferation was assessed by a CellTiter-Glo® viability assay. Lyophilized CellTiter Glo Substrate (Promega, USA) was dissolved in the CellTiter Glo Buffer to get CellTiter-Glo® Reagent, and from which 100 μL was added to each well. After 15 min incubation at 25° C., the medium was gently measured with Envision 2104 Multilabel Reader (PerkinElmer, USA) to get the luminescent based on quantitation of the ATP present, an indicator of metabolically active cells. The proliferation assay was performed in triplicate (n=3). EC50 values were derived from the normalized cell growth and corresponding sigmoidal curves were fitted and generated with Origin 8.0.

[1] = Second-order reaction kinetics with tetrazine DPTz (UV-Vis absorbance at 525 nm); assay type: physicochemical; conditions: for Second-order rate constant (k2): with DPTz, 37° C., λabs = 525 nm
Protocol: (§1) UV-VIS photospectrometic kinetic measurements were performed on a BioTek Synergy HT Microplate Reader (BioTek, USA) in a 96-well plate formate. In further detail, for analysis of reaction kinetics in DMSO and DMSO/H2O (9:1, v/v), stock solutions of benzonorbornadiene derivatives 1-3 (60 mM or 12.5 mM) and tetrazine (15 mM or 2.5 mM) in DMSO were prepared. Final solutions containing tetrazine (2 mM or 0.25 mM) and 1-3 (20 mM, 30 mM, 40 mM and 50 mM or 2.5 mM, 3.75 mM, 5 mM, 6.25 mM) were prepared in 96-well plates and thoroughly mixed at 37° C. for UV-Vis measurements. For analysis of reaction kinetics in DMSO/PBS (3:2, v/v), final solutions containing tetrazine (0.05 mM) and 1-2 (0.5 mM), tetrazine alone (0.05 mM) were prepared in 96-well plates and thoroughly mixed at 37° C. for UV-Vis measurements. The reactions were monitored at 525 nm, which is a local absorbance maximum of tetrazine. All kinetic experiments were run in triplicates. Pseudo-first order curve fitting was performed with Origin 8.0 software using the exponential formula: y=A1×e^kx+y0.

[2] = Stability in human serum (PBS:Serum 1:1), HPLC; assay type: in vitro ADME; conditions: 50 μM in PBS:Serum (1:1), 37° C., 5 up to 48 h, 2 up to 7 days
Protocol: Stability studies of prodrug 5 in PBS:Serum were performed as follows. Stock solutions of prodrug 5 (2.5 mM) in DMSO were prepared. Aliquots of 5 stock solution (20 μL), 0.01 M PBS (480 μL) and human serum (500 μL) (Sigma-Aldrich, USA) were combined to give final concentrations of 50 μM for the 5 in PBS: Serum (1:1, v/v). The sample was thoroughly mixed and incubated at 37° C. in the dark and subsequently a 50 μL aliquot of the sample was taken at indicated time points (5 min, 6 h, 24 h and 48 h) and quenched by 200 μL ice cold acetonitrile, followed by centrifugation at 13300 rpm for 5 min. The supernatant was injected and analyzed by HPLC at 480 nm.
Stability studies of compound 2 were performed as follows. Stock solutions of 2 (2.5 mM) in DMSO were prepared. Aliquots of 2 stock solution (20 μL), 0.01 M PBS (480 μL) and human serum (500 μL) (Sigma-Aldrich, USA) were combined to give final concentrations of 50 μM for the 2 in PBS: Serum (1:1, v/v). The sample was thoroughly mixed and incubated at 37° C. in the dark and subsequently a 50 μL aliquot of the sample was taken at indicated time points (5 min, 6 h, 24 h, 48 h, 72 h and 7 days) and quenched by 200 μL ice cold acetonitrile, followed by centrifugation at 13300 rpm for 5 min. The supernatant was injected and analyzed by HPLC at 317 nm.

[3] = Second-order reaction kinetics with tetrazine PEG-Tz (UV-Vis absorbance at 525 nm); assay type: physicochemical; conditions: 37° C., λabs = 525 nm
Protocol: as §1

Compound | Second-order rate constant (k2) ([1]; 90% DMSO/H2O) | Second-order rate constant (k2) ([1]; DMSO) | Second-order rate constant (k2) ([3]; 60% DMSO/PBS (3:2)) | Second-order rate constant (k2) ([3]; 90% DMSO/H2O) | further results
COCCOCCOCCNC(=O)c1ccc(-c2nncnn2)cc1 [PEG-Tz, N-(2-(2-(2-methoxyethoxy)ethoxy)ethyl)-4-(1,2,4,5-tetrazin-3-yl) benzamide] | – | – | – | – | EC50 (A549 lung cancer cells; 72 hour incubation at 37° C.): > 200000 nM; Cytotoxicity in A549 cells (A549 lung cancer cells; tested concentration range (PEG-Tz 0.02 to 200 μM; 5 0.001 to 10 μM)): no obvious toxicity; also recorded: no cytotoxicity
CC(C)(C)OC(=O)N1C2C=CC1(COC(=O)Nc1ccc([N+](=O)[O-])cc1)c1ccccc12 (stereo not drawn) [compound 3, tert-butyl 1-((((4-nitrophenyl)carbamoyl)oxy)methyl)-1,4-dihydro-1,4-epiminonaphthalene-9-carboxylate] | 0.0084 M⁻¹ s⁻¹ and 0.0084 ± 0.0016 M⁻¹ s⁻¹ | 0.0044 M⁻¹ s⁻¹ and 0.0044 ± 0.00009 M⁻¹ s⁻¹ | – | – | –
CC(=O)N1C2C=CC1(COC(=O)Nc1ccc([N+](=O)[O-])cc1)c1ccccc12 (stereo not drawn) [compound 2] | 0.017 M⁻¹ s⁻¹ and 0.017 ± 0.002 M⁻¹ s⁻¹ | 0.010 M⁻¹ s⁻¹ and 0.010 ± 0.0004 M⁻¹ s⁻¹ | 0.135 M⁻¹ s⁻¹ and 0.135 ± 0.010 M⁻¹ s⁻¹ | 0.020 ± 0.0007 M⁻¹ s⁻¹ | Stability in human serum [2]: completely stable until the end of the analysis at one week; Unspecific payload release in human serum [2]: No free p-Nitroaniline or p-Nitroaniline-containing side products were observed; also recorded: no traces of pNA were formed; also recorded: No background liberation of reporter molecules was observed
O=C(Nc1ccc([N+](=O)[O-])cc1)OCC12C=CC(O1)c1ccccc12 (stereo not drawn) [compound 1] | 0.028 M⁻¹ s⁻¹ and 0.028 ± 0.0003 M⁻¹ s⁻¹ | 0.015 M⁻¹ s⁻¹ and 0.015 ± 0.008 M⁻¹ s⁻¹ | 0.190 M⁻¹ s⁻¹ and 0.190 ± 0.029 M⁻¹ s⁻¹ | 0.058 ± 0.0003 M⁻¹ s⁻¹ | Decrease of reaction rate with DPTz relative to 7-oxo-BNBD (6) ([1]; DMSO): ~12 fold
COc1cccc2c1C(=O)c1c(O)c3c(c(O)c1C2=O)C[C@@](O)(C(=O)CO)C[C@@H]3O[C@H]1C[C@H](N)[C@H](O)[C@H](C)O1 [Doxorubicin, reference compound] | – | – | – | – | EC50 (A549 lung cancer cells; Homo sapiens, A549): 88 nM; EC50 (A549 lung cancer cells; Homo sapiens, A549, 72 hour incubation at 37° C.): 88 ± 31 nM
7-oxo-BNBD [compound 6, reference compound] | – | 0.176 M⁻¹ s⁻¹ and 0.176 ± 0.004 M⁻¹ s⁻¹ | – | – | –

Source: patent US11560384B2, “Benzonorbornadiene derivatives and reactions thereof” (University of Utah Research Foundation, priority 2017, dated 2023)
